# Experimental data reported in US10206394B2, “Herbicidal compounds” (Syngenta Participations AG, priority 2014, dated 2019).
# Like-named read-outs stand apart in the source and are kept apart here.
# Experiments:
# Test in all cases: Glasshouse assay for herbicidal activity (pre- and post-emergence), percentage phytotoxicity
# Format in all cases: in vivo
# [1] = tested on: Echinochloa crus-galli (ECHCG); settings: Echinochloa crus-galli, Rate 250 g/ha, 100%=total damage, 0%=no damage
# Method in brief: (§1)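 Herbicide was applied to potted plants sown in standard soil, one day after sowing for PRE and after about 12 days for POST. Visual percentage damage ratings followed at 15 DAA (POST) and 20 DAA (PRE).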
# Avena fatua (AVEFA) = settings: Avena fatua, Rate 250 g/ha, 100%=total damage, 0%=no damage
# Method in brief: as §1
# Lolium perenne (LOLPE) = settings: Lolium perenne, Rate 250 g/ha, 100%=total damage, 0%=no damage
# Method in brief: as §1
# [2] = tested on: Alopecurus myosuroides (ALOMY); settings: Alopecurus myosuroides, Rate 250 g/ha, 100%=total damage, 0%=no damage
# Method in brief: as §1
# [3] = post-emergence, 360 h, post-emergence, visual assessment 15 DAA, read-out: Post-emergence herbicidal activity (percentage phytotoxicity) ECHCG POST
# [4] = pre-emergence, 480 h, pre-emergence, visual assessment 20 DAA, read-out: Pre-emergence herbicidal activity (percentage phytotoxicity) ECHCG PRE
# [5] = post-emergence, 360 h, post-emergence, visual assessment 15 DAA, read-out: Post-emergence herbicidal activity (percentage phytotoxicity) AVEFA POST
# [6] = pre-emergence, 480 h, pre-emergence, visual assessment 20 DAA, read-out: Pre-emergence herbicidal activity (percentage phytotoxicity) AVEFA PRE
# [7] = post-emergence, 360 h, post-emergence, visual assessment 15 DAA, read-out: Post-emergence herbicidal activity (percentage phytotoxicity) LOLPE POST
# [8] = pre-emergence, 480 h, pre-emergence, visual assessment 20 DAA, read-out: Pre-emergence herbicidal activity (percentage phytotoxicity) LOLPE PRE
# [9] = post-emergence, 360 h, post-emergence, visual assessment 15 DAA, read-out: Post-emergence herbicidal activity (percentage phytotoxicity) ALOMY POST
# [10] = pre-emergence, 480 h, pre-emergence, visual assessment 20 DAA, read-out: Pre-emergence herbicidal activity (percentage phytotoxicity) ALOMY PRE
SMILES,"pest or weed control at 250 g/ha [1, 3]","pest or weed control at 250 g/ha [1, 4]",pest or weed control at 250 g/ha (Avena fatua (AVEFA); [5]),pest or weed control at 250 g/ha (Avena fatua (AVEFA); [6]),pest or weed control at 250 g/ha (Lolium perenne (LOLPE); [7]),pest or weed control at 250 g/ha (Lolium perenne (LOLPE); [8]),"pest or weed control at 250 g/ha [2, 9]","pest or weed control at 250 g/ha [2, 10]"
Cc1cc(-c2ccc(Cl)cn2)cc(C)c1C1C(=O)CC(CC(=O)NCc2cccc(Br)c2)C1=O (stereo not drawn) [Compound B359],100%,80%,100%,70%,90%,90%,90%,90%
Cc1cc(-c2ccc(Cl)cn2)cc(C)c1C1C(=O)CC(CC(=O)NC(C)C)C1=O (stereo not drawn) [Compound B360],100%,100%,100%,100%,100%,100%,100%,100%
C=C(C)CNC(=O)CC1CC(=O)C(c2c(C)cc(-c3ccc(Cl)cn3)cc2C)C1=O (stereo not drawn) [Compound B361],100%,100%,100%,100%,90%,90%,100%,90%
Cc1cc(-c2ccc(Cl)cn2)cc(C)c1C1C(=O)CC(CC(=O)NCC2CC2)C1=O (stereo not drawn) [Compound B362],100%,100%,100%,100%,90%,100%,90%,100%
C#CC(C)(C)NC(=O)CC1CC(=O)C(c2c(C)cc(-c3ccc(Cl)cn3)cc2C)C1=O (stereo not drawn) [Compound B363],100%,100%,100%,90%,90%,100%,90%,100%
COCC(C)(C)NC(=O)CC1CC(=O)C(c2c(C)cc(-c3ccc(Cl)cn3)cc2C)C1=O (stereo not drawn) [Compound B364],90%,90%,90%,80%,90%,90%,100%,100%
C=CC(C)NC(=O)CC1CC(=O)C(c2c(C)cc(-c3ccc(Cl)cn3)cc2C)C1=O (stereo not drawn) [Compound B365],100%,100%,90%,90%,90%,100%,90%,100%
COCC(C)NC(=O)CC1CC(=O)C(c2c(C)cc(-c3ccc(Cl)cn3)cc2C)C1=O (stereo not drawn) [Compound B366],100%,100%,100%,100%,90%,100%,90%,100%
CCN(C)C(=O)CC1CC(=O)C(c2c(C)cc(-c3ccc(Cl)cn3)cc2C)C1=O (stereo not drawn) [Compound B367],100%,100%,100%,100%,100%,100%,90%,90%
Cc1cc(-c2ccc(Cl)cn2)cc(C)c1C1C(=O)CC(CC(=O)N(C)C(C)(C)C)C1=O (stereo not drawn) [Compound B368],100%,100%,100%,90%,100%,100%,90%,90%
C#CCN(C)C(=O)CC1CC(=O)C(c2c(C)cc(-c3ccc(Cl)cn3)cc2C)C1=O (stereo not drawn) [Compound B369],100%,100%,100%,100%,90%,100%,90%,100%
C=CCNC(=O)CC1CC(=O)C(c2c(C)cc(-c3ccc(Cl)cn3)cc2C)C1=O (stereo not drawn) [Compound B370],100%,100%,100%,100%,100%,100%,90%,100%
Cc1cc(-c2ccc(Cl)cn2)cc(C)c1C1C(=O)CC(CC(=O)N(C)C(C)C)C1=O (stereo not drawn) [Compound B371],100%,100%,100%,90%,100%,100%,100%,90%
Cc1cc(-c2ccc(Cl)cn2)cc(C)c1C1C(=O)CC(CC(=O)NC/C=C/Cl)C1=O (stereo not drawn) [Compound B372],100%,100%,100%,100%,90%,100%,90%,90%
Cc1cc(-c2ccc(Cl)cn2)cc(C)c1C1C(=O)CC(CC(=O)NCc2cccs2)C1=O (stereo not drawn) [Compound B373],100%,100%,100%,80%,80%,100%,80%,70%
Cc1cc(-c2ccc(Cl)cn2)cc(C)c1C1C(=O)CC(CC(=O)NCc2cccc(Cl)c2)C1=O (stereo not drawn) [Compound B374],100%,90%,100%,90%,90%,90%,90%,70%
Cc1ccc(CNC(=O)CC2CC(=O)C(c3c(C)cc(-c4ccc(Cl)cn4)cc3C)C2=O)cc1 (stereo not drawn) [Compound B375],100%,90%,70%,70%,80%,80%,40%,60%
C=Cc1cc(-c2ccc(Cl)cn2)cc(C)c1C1C(=O)CC(CC(=O)NC(C)(C)C)C1=O (stereo not drawn) [Compound B376],100%,60%,90%,80%,100%,60%,90%,30%
